29 compounds from patent US20090131481A1, “Transcription Factor Modulating Compounds and Methods of Use Thereof” (Paratek Pharmaceuticals, Inc., published 2009) can be followed below.

One data set deals with P. aeruginosa. In words: P. aeruginosa cytotoxicity whole cell assay (J774 cells, LDH release). The conditions noted are these: relative to vehicle treated cells infected with wild type P. aeruginosa.
The next data set has as its target T1, ExsA (Pseudomonas aeruginosa, UniProt P26993).
T1 construct: made in house
T1 sequence (P26993 1-278): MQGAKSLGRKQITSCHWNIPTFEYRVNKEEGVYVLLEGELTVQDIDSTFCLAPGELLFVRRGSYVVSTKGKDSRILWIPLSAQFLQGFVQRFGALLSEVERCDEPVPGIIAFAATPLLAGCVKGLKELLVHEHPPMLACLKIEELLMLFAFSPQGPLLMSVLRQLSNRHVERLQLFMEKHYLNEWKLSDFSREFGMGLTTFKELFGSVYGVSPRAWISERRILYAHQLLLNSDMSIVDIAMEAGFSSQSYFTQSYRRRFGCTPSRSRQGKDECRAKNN
Briefly: Chemiluminescence-based ExsA-DNA binding assay. On the set-up: species or system P. aeruginosa. The conditions noted are these: Table 7, cell-free system; read-out: ExsA EC50.

A further data set deals with LcrF (VirF) (Yersinia pestis, UniProt P28808). In words: biochemical. It counts as binding, Y. pseudotuberculosis.
Another data set concerns Y. pseudotuberculosis. In words: microbe, parasite or virus in culture. Conditions: Yersinia pseudotuberculosis, J774, read-out: % Cytotoxicity.
Setting [1] is: EC50 for inhibition of LcrF(VirF)-DNA binding.
The mark [2] stands for this setting: read-out: EC50 for inhibition of LcrF(VirF)-DNA binding.

Read-outs that look alike come from different tables or passages of the source.

LcrF (VirF), sequence (P28808 whole entry, looked up): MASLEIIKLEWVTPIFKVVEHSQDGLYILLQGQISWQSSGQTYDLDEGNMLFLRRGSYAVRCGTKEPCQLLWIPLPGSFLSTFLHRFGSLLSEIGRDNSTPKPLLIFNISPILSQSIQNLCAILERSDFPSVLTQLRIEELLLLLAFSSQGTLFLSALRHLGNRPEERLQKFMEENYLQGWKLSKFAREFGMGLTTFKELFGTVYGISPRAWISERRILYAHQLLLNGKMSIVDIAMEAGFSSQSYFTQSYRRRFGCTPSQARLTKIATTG

For the compound `O=C(/C=C/c1ccc(F)cc1)Nc1ccc(-c2nc3ccc(-n4cccn4)cc3n2O)cc1` [FX, (E)-3-(4-Fluoro-phenyl)-N-[4-(1-hydroxy-6-pyrazol-1-yl-1H-benzoimidazol-2-yl)-phenyl]-acrylamide], in the data set with P. aeruginosa, the “Cytotoxicity at 50 μg/mL Pseudomonas” value is listed as “* (reduced P. aeruginosa cytotoxicity to 99-75% of untreated, wild type levels at 50 mg/mL)”. Also, the EC50 on ExsA and on LcrF (VirF) (setting [1]) was above 25 µM throughout.
With `CC(=O)c1ccc(/C=C/C(=O)Nc2ccc(-c3nc4ccc(S(C)(=O)=O)cc4n3O)cc2)cc1` [GK], in the data set on P. aeruginosa, the “Cytotoxicity at 50 μg/mL Pseudomonas” value is recorded as “* (reduced P. aeruginosa cytotoxicity to 99-75% of untreated, wild type levels at 50 mg/mL)”. In addition, at ExsA, the half-maximal effective concentration (EC50) is above 25 µM.
`CC(=O)c1ccc(/C=C/C(=O)Nc2ccc(-c3nc4ccc(C(F)(F)F)cc4n3O)cc2)cc1` [GE]: in the data set with P. aeruginosa, the “Cytotoxicity at 50 μg/mL Pseudomonas” value was “* (reduced P. aeruginosa cytotoxicity to 99-75% of untreated, wild type levels at 50 mg/mL)”. Moreover, the concentration giving a half-maximal response (EC50) at ExsA is 10 to 25 µM.
For the compound `O=C(/C=C/c1ccc(F)cc1F)Nc1ccc(-c2nc3ccc([N+](=O)[O-])cc3n2O)nc1` [EA], the “Cytotoxicity at 50 μg/mL Pseudomonas” value in the data set on P. aeruginosa was “* (reduced P. aeruginosa cytotoxicity to 99-75% of untreated, wild type levels at 50 mg/mL)”. The activity at 50 µg/mL with Y. pseudotuberculosis is below 75%.
Consider `CS(=O)(=O)c1ccc(/C=C/C(=O)Nc2ccc(-c3nc4ccc([N+](=O)[O-])cc4n3O)cc2)cc1` [GU], for which the “Cytotoxicity at 50 μg/mL Pseudomonas” value in the data set on P. aeruginosa is “** (reduced P. aeruginosa cytotoxicity below 75% of untreated, wild type levels at 50 mg/mL)”. Besides, the EC50 on ExsA was below 10 µM.
On to `O=C(/C=C/c1ccc(F)cc1)Nc1ccc(-c2nc3ccc([N+](=O)[O-])cc3n2OCP(=O)(O)O)cc1` [DW, (2-{4-[(E)-3-(4-Fluoro-phenyl)-acrloylamino]-phenyl}-6-nitro-benzoimidazol-1-yloxymethyl)-phosphonic acid], for which the “Cytotoxicity at 50 μg/mL Pseudomonas” value with P. aeruginosa is listed as “* (reduced P. aeruginosa cytotoxicity to 99-75% of untreated, wild type levels at 50 mg/mL)”. Further, in the data set on Y. pseudotuberculosis, the activity at 50 µg/mL lay within 75 to 99%.
`O=C(/C=C/c1ccc(F)cc1)Nc1ccc(-c2nc3cc(F)c([N+](=O)[O-])cc3n2O)cc1` [FA, N-[4-(5-Fluoro-1-hydroxy-6-nitro-1H-benzoimidazol-2-yl)-phenyl]-3-(4-fluoro-cinnamyl)-amide]: the “Cytotoxicity at 50 μg/mL Pseudomonas” value in the data set on P. aeruginosa is reported as “** (reduced P. aeruginosa cytotoxicity below 75% of untreated, wild type levels at 50 mg/mL)”. In addition, the concentration for a half-maximal effect (EC50) was 10 to 25 µM at ExsA and above 25 µM at LcrF (VirF) (setting [1]).
Regarding `CC(=O)c1ccc(C(=O)Nc2ccc(-c3nc4ccc(-n5ccnc5)cc4n3O)cc2)cc1` [FZ, 4-Acetyl-N-[4-(1-hdroxy-6-imidazol-1-yl-1H-benzoimidazol-2-yl)-phenyl]-benzamide], in the data set on P. aeruginosa, the “Cytotoxicity at 50 μg/mL Pseudomonas” value is “* (reduced P. aeruginosa cytotoxicity to 99-75% of untreated, wild type levels at 50 mg/mL)”. In addition, at ExsA, the EC50 is above 25 µM.
Consider `CC(=O)c1ccc(/C=C/C(=O)N(CC(N)=O)c2ccc(-c3nc4ccc([N+](=O)[O-])cc4n3O)cc2)cc1` [GP, (E)-3-(4-Acetyl-phenyl)-N-carbamoylmethyl-N-[4-(1-hydroxy-6-nitro-1H-benzoimidazol-2-yl)-phenyl]-acrylamide], for which the “Cytotoxicity at 50 μg/mL Pseudomonas” value with P. aeruginosa is on record as “* (reduced P. aeruginosa cytotoxicity to 99-75% of untreated, wild type levels at 50 mg/mL)”. The EC50 on ExsA is above 25 µM.
Consider `Cc1cc2nc(-c3ccc(NC(=O)/C=C/c4ccc(F)cc4)cc3)n(O)c2cc1[N+](=O)[O-]` [EO, (E)-3-(4-Fluoro-phenyl)-N-[4-(1-hydroxy-5-methyl-6-nitro-1H-benzoimidazol-2-yl)-phenyl]-acrylamide], for which the “Cytotoxicity at 50 μg/mL Pseudomonas” value in the data set with P. aeruginosa is on record as “** (reduced P. aeruginosa cytotoxicity below 75% of untreated, wild type levels at 50 mg/mL)”. The activity at 50 µg/mL in the data set with Y. pseudotuberculosis fell in the range of 75 to 99%.
Consider `O=C(/C=C/c1ccc(-n2ccnc2)nc1)Nc1ccc(-c2nc3ccc([N+](=O)[O-])cc3n2O)cc1` [GS], for which the “Cytotoxicity at 50 μg/mL Pseudomonas” value in the data set with P. aeruginosa is “** (reduced P. aeruginosa cytotoxicity below 75% of untreated, wild type levels at 50 mg/mL)”. The EC50 at ExsA was in the range of 10 to 25 µM.
Take `CC(=O)c1ccc(/C=C/C(=O)Nc2ccc(-c3nc4ccc(S(N)(=O)=O)cc4n3O)cc2)cc1` [GF]: the “Cytotoxicity at 50 μg/mL Pseudomonas” value with P. aeruginosa was “* (reduced P. aeruginosa cytotoxicity to 99-75% of untreated, wild type levels at 50 mg/mL)”. For the same compound, the EC50 on ExsA lay within 10 to 25 µM.
For the compound `N#Cc1ccc2nc(-c3ccc(NC(=O)c4ccc(-n5ccnc5)cc4)cc3)n(O)c2c1` [GA], the “Cytotoxicity at 50 μg/mL Pseudomonas” value with P. aeruginosa is “** (reduced P. aeruginosa cytotoxicity below 75% of untreated, wild type levels at 50 mg/mL)”. The EC50 at ExsA and at LcrF (VirF) (setting [1]) was 10 to 25 µM in each case.
Turning to `CCOP(=O)(Cc1cc(/C=C/C(=O)Nc2ccc(-c3nc4ccc([N+](=O)[O-])cc4n3O)cc2)ccc1F)OCC` [EF], the “Cytotoxicity at 50 μg/mL Pseudomonas” value with P. aeruginosa is “* (reduced P. aeruginosa cytotoxicity to 99-75% of untreated, wild type levels at 50 mg/mL)”. In addition, the activity at 50 µg/mL in the data set with Y. pseudotuberculosis was below 75%.
Regarding `N#Cc1ccc(C(=O)Nc2ccc(-c3nc4ccc(C#N)cc4n3O)cc2)cc1` [CO], in the data set with P. aeruginosa, the “Cytotoxicity at 50 μg/mL Pseudomonas” value was “* (reduced P. aeruginosa cytotoxicity to 99-75% of untreated, wild type levels at 50 mg/mL)”. Also, in the data set with Y. pseudotuberculosis, the activity at 50 µg/mL is 75 to 99%.
`CC(=O)c1ccc(/C=C/C(=O)Nc2ccc(-c3nc4cc(OCCN5CCOCC5)c([N+](=O)[O-])cc4n3O)cc2)cc1` [FV]: in the data set on P. aeruginosa, the “Cytotoxicity at 50 μg/mL Pseudomonas” value is listed as “** (reduced P. aeruginosa cytotoxicity below 75% of untreated, wild type levels at 50 mg/mL)”. Further, the EC50 at ExsA and on LcrF (VirF) (setting [2]) was above 25 µM each time.
As for `CC(=O)c1ccc(/C=C/C(=O)Nc2ccc(-c3nc4ccc([N+](=O)[O-])cc4n3O)cc2)cn1` [GN], the “Cytotoxicity at 50 μg/mL Pseudomonas” value in the data set on P. aeruginosa is reported as “** (reduced P. aeruginosa cytotoxicity below 75% of untreated, wild type levels at 50 mg/mL)”. Besides, the EC50 on ExsA is below 10 µM.
As to `O=C(/C=C/c1ccc(F)cc1)Nc1ccc(-c2nc3ccc([N+](=O)[O-])cc3n2O)cn1` [DY], the “Cytotoxicity at 50 μg/mL Pseudomonas” value in the data set on P. aeruginosa was “* (reduced P. aeruginosa cytotoxicity to 99-75% of untreated, wild type levels at 50 mg/mL)”. In the data set on Y. pseudotuberculosis, the activity at 50 µg/mL was below 75%.
As to `CN(C)CCOc1cc2nc(-c3ccc(NC(=O)/C=C/c4ccc(F)cc4)cc3)n(O)c2cc1[N+](=O)[O-]` [FS], in the data set with P. aeruginosa, the “Cytotoxicity at 50 μg/mL Pseudomonas” value is listed as “* (reduced P. aeruginosa cytotoxicity to 99-75% of untreated, wild type levels at 50 mg/mL)”. Further, the concentration giving a half-maximal response (EC50) on ExsA was above 25 µM.
For `CC(=O)c1ccc(/C=C/C(=O)N(CC(=O)O)c2ccc(-c3nc4ccc(C#N)cc4n3O)cc2)cc1` [GO, {[(E)-3-(4-Acetyl-phenyl)-acryloyl]-[4-(6-cyano-1-hydroxy-1H-benzoimidazol-2-yl)-phenyl]-amino}-acetic acid], the “Cytotoxicity at 50 μg/mL Pseudomonas” value in the data set on P. aeruginosa was “* (reduced P. aeruginosa cytotoxicity to 99-75% of untreated, wild type levels at 50 mg/mL)”. Also, on ExsA, the concentration giving a half-maximal response (EC50) is above 25 µM.
As to `CC(=O)c1ccc(/C=C/C(=O)N(CC(N)=O)c2ccc(-c3nc4ccc(C#N)cc4n3O)cc2)cc1` [GQ], the “Cytotoxicity at 50 μg/mL Pseudomonas” value with P. aeruginosa is “* (reduced P. aeruginosa cytotoxicity to 99-75% of untreated, wild type levels at 50 mg/mL)”. For the same compound, at ExsA, the 50% effective concentration (EC50) is above 25 µM.
Take `CC(=O)c1ccc(/C=C/C(=O)Nc2ccc(-c3nc4ccc(C#N)cc4n3O)cc2)cc1` [FW]: the “Cytotoxicity at 50 μg/mL Pseudomonas” value in the data set on P. aeruginosa is “** (reduced P. aeruginosa cytotoxicity below 75% of untreated, wild type levels at 50 mg/mL)”. The EC50 at ExsA and at LcrF (VirF) (setting [1]) was 10 to 25 µM each time.
With `O=C(/C=C/c1ccc(F)cc1F)Nc1ccc(-c2nc3ccc([N+](=O)[O-])cc3n2O)cn1` [EB], in the data set on P. aeruginosa, the “Cytotoxicity at 50 μg/mL Pseudomonas” value is “* (reduced P. aeruginosa cytotoxicity to 99-75% of untreated, wild type levels at 50 mg/mL)”. In addition, the activity at 50 µg/mL with Y. pseudotuberculosis was below 75%.
As for `CC(=O)c1ccc(/C=C/C(=O)Nc2ccc(-c3nc4ccc(Br)cc4n3O)cc2)cc1` [GD], the “Cytotoxicity at 50 μg/mL Pseudomonas” value with P. aeruginosa is “* (reduced P. aeruginosa cytotoxicity to 99-75% of untreated, wild type levels at 50 mg/mL)”. Further, the EC50 at ExsA is below 10 µM.
As to `CC(=O)c1ccc(C(=O)Nc2ccc(-c3nc4ccc(-n5cccn5)cc4n3O)cc2)cc1` [FY, 4-Acetyl-N-[4-(1-hdroxyy-6-pyrazol-1-yl-1H-benzoimidazol-2-yl)-phenyl]-benzamide], in the data set on P. aeruginosa, the “Cytotoxicity at 50 μg/mL Pseudomonas” value is reported as “* (reduced P. aeruginosa cytotoxicity to 99-75% of untreated, wild type levels at 50 mg/mL)”. Further, the EC50 at ExsA and on LcrF (VirF) (setting [2]) was above 25 µM throughout.
`CC(=O)c1ccc(/C=C/C(=O)Nc2ccc(-c3nc4ccc(C(=O)O)cc4n3O)cc2)cc1` [GL]: in the data set with P. aeruginosa, the “Cytotoxicity at 50 μg/mL Pseudomonas” value is recorded as “** (reduced P. aeruginosa cytotoxicity below 75% of untreated, wild type levels at 50 mg/mL)”. The 50% effective concentration (EC50) on ExsA is above 25 µM.
Consider `CC(=O)c1ccc(/C=C/C(=O)Nc2ccc(-c3nc4ccc(F)cc4n3O)cc2)cc1` [GR], for which the “Cytotoxicity at 50 μg/mL Pseudomonas” value in the data set with P. aeruginosa is “* (reduced P. aeruginosa cytotoxicity to 99-75% of untreated, wild type levels at 50 mg/mL)”. The 50% effective concentration (EC50) on ExsA was 10 to 25 µM.
For `CC(=O)c1ccc(/C=C/C(=O)Nc2ccc(-c3nc4ccccc4n3O)cc2)cc1` [GH], the “Cytotoxicity at 50 μg/mL Pseudomonas” value in the data set on P. aeruginosa is given as “* (reduced P. aeruginosa cytotoxicity to 99-75% of untreated, wild type levels at 50 mg/mL)”. Besides, at ExsA, the EC50 is 10 to 25 µM.
For `O=C(/C=C/c1ccc(F)cc1)Nc1ccc(-c2nc3ccc(-n4ccnc4)cc3n2O)cc1` [FT], the “Cytotoxicity at 50 μg/mL Pseudomonas” value with P. aeruginosa is given as “* (reduced P. aeruginosa cytotoxicity to 99-75% of untreated, wild type levels at 50 mg/mL)”. The concentration for a half-maximal effect (EC50) was 10 to 25 µM on ExsA and above 25 µM at LcrF (VirF) (setting [1]).
